Values quoted from earlier work, collected in patent publication US20230295082A1, “MODIFIED EZETIMIBE DRUG FOR CANCER TREATMENT” (University of South Africa, priority 2020, published 2023).

Assays:
Mdm2 p53-binding domain = Mdm2 p53-binding domain (Homo sapiens, UniProt Q00987); settings: applicant's previous work
[1] = system: cancer cell lines, especially those that overexpress Mdm2

Sequence of Mdm2 p53-binding domain (Q00987 26-109 limits assumed): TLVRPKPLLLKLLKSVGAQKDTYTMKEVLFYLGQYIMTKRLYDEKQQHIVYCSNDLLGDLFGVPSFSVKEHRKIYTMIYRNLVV

O=C1[C@H](CC[C@H](O)c2ccc(F)cc2)[C@@H](c2ccc(O)cc2)N1c1ccc(F)cc1 [ezetimibe]
binding to the Mdm2 hydrophobic pocket relative to nutlins (Mdm2 p53-binding domain): bind more strongly than nutlins
toxicity to cancer cell lines [1]: toxic to cancer cell lines
